Data reported in patent US4742049A, “Semisynthetic erythromycin antibiotics” (Abbott Laboratories, priority 1986, dated 1988).
In brackets after ≈: the same amount, converted by molar mass. Where two headings read alike, the source gives them in different places.

What was measured:
gastointestinal motility = test: gastrointestinal motility in sensitive animal models (general statement); format: in vivo; conditions: compared with parent erythromycin compound
Haemophilus influenzae = test: MIC against strains of Haemophilus influenzae; format: cell-based; conditions: Haemophilus influenzae, read-out: MIC
Method: Erythromycin A was used for this purpose.
After incubation, each disk is read.
In the manner of Example 23, the efficacy of compounds of this invention were tested against numerous strains of Haemophilus influenzae.

[1] = test system: gut contractions (stomach, duodenum, jejunum); conditions: dog, in vivo, iv, 4 mg/kg
Method: Compounds of this invention have been tested for gastrointestinal stimulating activity in a dog model at 4 mg/kg intravenously. Contractions in the gut were recorded with surgically implanted strain gauges. […] Ratios were calculated for the stomach, duodenum and jejunum, and a final arithmetic mean index was calculated and reported in Table 1.

CC[C@H]1OC(=O)[C@H](C)[C@@H](O[C@H]2C[C@@](C)(OC)[C@@H](O)[C@H](C)O2)[C@H](C)[C@@H](O[C@@H]2O[C@H](C)C[C@H](N(C)C)[C@H]2O)[C@](C)(OC)C[C@@H](C)C(=O)[C@H](C)[C@H]2N(CCN(C)C)C(=O)O[C@]12C [Example 9, 11-deoxy-6-O-methyl erythromycin A 11,12-[N-(2-dimethylamino)ethyl]cyclic carbamate]
gastointestinal motility and associated side-effects (gastointestinal motility): much less gastointestinal motility and associated side-effects than the parent erythromycin compound | MIC (Haemophilus influenzae; ATCC9006, strain ATCC 9006): 0.25 µg/mL (≈ 0.296 µM) | MIC (Haemophilus influenzae; ATCC9795, strain ATCC 9795): 0.25 µg/mL (≈ 0.296 µM) | MIC (Haemophilus influenzae; ATCC10211, strain ATCC 10211): 0.5 µg/mL (≈ 0.592 µM) | MIC (Haemophilus influenzae; ATCC19418, strain ATCC 19418): 0.5 µg/mL (≈ 0.592 µM) | MIC (Haemophilus influenzae; strain 504): 1 µg/mL (≈ 1.18 µM) | MIC (Haemophilus influenzae; strain 519A): 0.5 µg/mL (≈ 0.592 µM) | MIC (Haemophilus influenzae; strain 566A): 0.5 µg/mL (≈ 0.592 µM) | MIC (Haemophilus influenzae; strain 588A): 0.25 µg/mL (≈ 0.296 µM) | MIC (Haemophilus influenzae; strain 632A): 0.5 µg/mL (≈ 0.592 µM) | MIC (Haemophilus influenzae; strain 667A): 0.25 µg/mL (≈ 0.296 µM) | MIC (Haemophilus influenzae; strain 747C): 0.25 µg/mL (≈ 0.296 µM) | MIC (Haemophilus influenzae; strain 751): 0.25 µg/mL (≈ 0.296 µM) | MIC (Haemophilus influenzae; strain 1177): 0.5 µg/mL (≈ 0.592 µM) | MIC (Haemophilus influenzae; strain 1435): 0.12 µg/mL (≈ 0.142 µM) | MIC (Haemophilus influenzae; strain 5036B): 0.5 µg/mL (≈ 0.592 µM) | MIC (Haemophilus influenzae; strain DILL AMP R): 0.25 µg/mL (≈ 0.296 µM) | MIC (Haemophilus influenzae; strain SOL AMP R): 0.25 µg/mL (≈ 0.296 µM) | MIC (Haemophilus influenzae; strain SPK AMP R): 0.25 µg/mL (≈ 0.296 µM) | Gastrointestinal Motility Index [1]: .013
